Reference: patent publication US12458021B2, “Microbiocidal derivatives” (SYNGENTA CROP PROTECTION AG, priority 2019, dated 2025)

Experiments:
[1] = tested on: Glomerella lagenarium (Colletotrichum lagenarium); assay: Glomerella lagenarium (Colletotrichum lagenarium) / liquid culture (anthracnose); type: cell-based; details: Colletotrichum orbiculare, PDB potato dextrose broth, 24° C., 3-4 days after application, read-out: control of Glomerella lagenarium (inhibition of growth, photometric)
In short: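 Fungal growth inhibition measured photometrically 3-4 days post-application at 24° C. Spores were mixed directly into potato dextrose broth and dispensed onto test compound supplied in DMSO.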

[2] = tested on: Phaeosphaeria nodorum (Septoria nodorum); assay: Phaeosphaeria nodorum (Septoria nodorum) / wheat / leaf disc preventative (glume blotch); type: in vivo; details: Parastagonospora nodorum, foliar, wheat leaf segments cv. Kanzler, inoculated 2 days after application, assessed 5-7 days after application, read-out: control of Phaeosphaeria nodorum (percent disease control compared to untreated)
Method: Example B6: Phaeosphaeria nodorum (Septoria nodorum)/Wheat/Leaf Disc Preventative (Glume Blotch) Wheat leaf segments cv. Kanzler are placed on agar in a multiwell plate (24-well format) and sprayed with the formulated test compound diluted in water. The leaf disks are inoculated with a spore suspension of the fungus 2 days after application. The inoculated test leaf disks are incubated at 20° C. and 75% rh under a light regime of 12 h light/12 h darkness in a climate cabinet and the activity of a compound is assessed as percent disease control compared to untreated when an appropriate level of disease damage appears in untreated check leaf disks (5-7 days after application). […] […]-190.

[3] = tested on: Monographella nivalis (Microdochium nivale); assay: Monographella nivalis (Microdochium nivale) / liquid culture (foot rot cereals); type: cell-based; details: PDB potato dextrose broth, 24° C., 4-5 days after application, read-out: control of Monographella nivalis (inhibition of growth, photometric)
In short: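 Growth inhibition measured by photometry 4-5 days post-application at 24° C. Compound was dispensed as DMSO solution, then PDB broth containing conidia from cryogenic storage was added.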

[4] = tested on: Mycosphaerella arachidis (Cercospora arachidicola); assay: Mycosphaerella arachidis (Cercospora arachidicola) / liquid culture (early leaf spot); type: cell-based; details: PDB potato dextrose broth, 24° C., 4-5 days after application, read-out: control of Mycosphaerella arachidis (inhibition of growth, photometric)
Method: Example B8: Mycosphaerella arachidis (Cercospora arachidicola)/Liquid Culture (Early Leaf Spot) Conidia of the fungus from cryogenic storage are directly mixed into nutrient broth (PDB potato dextrose broth). After placing a (DMSO) solution of test compound into a microtiter plate (96-well format), the nutrient broth containing the fungal spores is added. The test plates are incubated at 24° C. and the inhibition of growth is determined photometrically 4-5 days after application. […] […]-180.

[5] = tested on: Magnaporthe grisea (Pyricularia oryzae); assay: whole plant or invertebrate; type: in vivo; details: foliar, read-out: control of Magnaporthe grisea (percent disease control compared to untreated)
[6] = tested on: Mycosphaerella graminicola (Septoria tritici); assay: Mycosphaerella graminicola (Septoria tritici) / liquid culture (Septoria blotch); type: cell-based; details: Zymoseptoria tritici, PDB potato dextrose broth, 24° C., 4-5 days after application, read-out: control of Mycosphaerella graminicola (inhibition of growth, photometric)
In short: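 Fungal growth inhibition was read photometrically 4-5 days after application. Compound was dosed from a DMSO solution into liquid cultures of spores in potato dextrose broth, incubated at 24° C.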

Alternaria solani = Alternaria solani / tomato / leaf disc (early blight); type: in vivo; details: foliar, tomato leaf disks cv. Baby, inoculated 2 days after application, assessed 5-7 days after application, read-out: control of Alternaria solani (percent disease control compared to untreated)
Method: Example B1: Alternaria solani/Tomato/Leaf Disc (Early Blight) Tomato leaf disks cv. Baby are placed on agar in multiwell plates (24-well format) and sprayed with the formulated test compound diluted in water. The leaf disks are inoculated with a spore suspension of the fungus 2 days after application. The inoculated leaf disks are incubated at 23° C./21° C. […] […]-185.

[7] = tested on: Puccinia recondita f. sp. tritici; assay: Puccinia recondita f. sp. tritici / wheat / leaf disc preventative (brown rust); type: in vivo; details: foliar, wheat leaf segments cv. Kanzler, inoculated 1 day after application, assessed 7-9 days after application, read-out: control of Puccinia recondita f. sp. tritici, preventative (percent disease control compared to untreated)
Method: Example B11: Puccinia recondita f. sp. tritici/Wheat/Leaf Disc Preventative (Brown Rust) Wheat leaf segments cv. Kanzler are placed on agar in multiwell plates (24-well format) and sprayed with the formulated test compound diluted in water. The leaf disks are inoculated with a spore suspension of the fungus 1 day after application. The inoculated leaf segments are incubated at 19° C. and 75% rh under a light regime of 12 h light/12 h darkness in a climate cabinet and the activity of a compound is assessed as percent disease control compared to untreated when an appropriate level of disease damage appears in untreated check leaf segments (7-9 days after application). […] […]-190.

[8] = tested on: Blumeria graminis f. sp. tritici (Erysiphe graminis f. sp. tritici); assay: Blumeria graminis f. sp. tritici / wheat / leaf disc preventative (powdery mildew on wheat); type: in vivo; details: foliar, wheat leaf segments cv. Kanzler, inoculated 1 day after application, assessed 6-8 days after application, read-out: control of Blumeria graminis f. sp. tritici (percent disease control compared to untreated)
From the text: Example B4: Blumeria graminis f. sp. tritici (Erysiphe graminis f. sp. tritici)/Wheat/Leaf Disc Preventative (Powdery Mildew on Wheat) Wheat leaf segments cv. Kanzler are placed on agar in a multiwell plate (24-well format) and sprayed with the formulated test compound diluted in water. The leaf disks are inoculated by shaking powdery mildew infected plants above the test plates 1 day after application. […] […]-192.

Pyrenophora teres = Pyrenophora teres / barley / leaf disc preventative (net blotch); type: in vivo; details: foliar, barley leaf segments cv. Hasso, inoculated 2 days after application, assessed 5-7 days after application, read-out: control of Pyrenophora teres (disease control compared to untreated)
Method: Example B13: Pyrenophora teres/Barley/Leaf Disc Preventative (Net Blotch) Barley leaf segments cv. Hasso are placed on agar in a multiwell plate (24-well format) and sprayed with the formulated test compound diluted in water. The leaf segments are inoculated with a spore suspension of the fungus 2 days after application. The inoculated leaf segments are incubated at 20° C. and 65% rh under a light regime of 12 h light/12 h darkness in a climate cabinet and the activity of a compound is assessed as disease control compared to untreated when an appropriate level of disease damage appears in untreated check leaf segments (5-7 days after application). […] […]-185.

CC1(C)CCC1NC(=O)c1nc(Nc2cc(F)cc(F)c2)ccc1OC(F)F (stereo not shown) [Compound P-46, 6-(3,5-difluoroanilino)-3-(difluoromethoxy)-N-(2,2-dimethylcyclobutyl)pyridine-2-carboxamide]
≥ 80%: inhibition at 20 ppm [1] | pest or weed control at 200 ppm [2] | inhibition at 20 ppm [3] | inhibition at 20 ppm [4] | pest or weed control at 200 ppm [5] | inhibition at 20 ppm [6]

COc1ccc(Nc2cc(F)cc(F)c2)nc1C(=O)NC1CCc2ccc(C(F)(F)F)cc21 (stereo not shown) [Compound P-56, 6-(3,5-difluoroanilino)-3-methoxy-N-[6-(trifluoromethyl)indan-1-yl]pyridine-2-carboxamide]
≥ 80%: pest or weed control at 200 ppm (Alternaria solani) | inhibition at 20 ppm [1] | pest or weed control at 200 ppm [2] | inhibition at 20 ppm [3] | inhibition at 20 ppm [4] | pest or weed control at 200 ppm [7] | inhibition at 20 ppm [6]

COc1ccc(Nc2cc(F)cc(F)c2)nc1C(=O)NCc1cc(F)cc(F)c1 [Compound P-26, 6-(3,5-difluoroanilino)-N-[(3,5-difluorophenyl)methyl]-3-methoxy-pyridine-2-carboxamide]
≥ 80%: inhibition at 20 ppm [1] | pest or weed control at 200 ppm [8] | pest or weed control at 200 ppm [2] | inhibition at 20 ppm [3] | inhibition at 20 ppm [4] | pest or weed control at 200 ppm [7] | pest or weed control at 200 ppm [5] | pest or weed control at 200 ppm (Pyrenophora teres) | inhibition at 20 ppm [6]

COc1ccc(Nc2cccc(C#N)c2)nc1C(=O)NC(C)(C)C [Compound P-146, N-tert-butyl-6-(3-cyanoanilino)-3-methoxy-pyridine-2-carboxamide]
≥ 80%: pest or weed control at 200 ppm (Alternaria solani) | inhibition at 20 ppm [1] | pest or weed control at 200 ppm [2] | inhibition at 20 ppm [3] | pest or weed control at 200 ppm [7] | pest or weed control at 200 ppm [5] | inhibition at 20 ppm [6]

COc1ccc(Nc2cc(F)cc(F)c2)nc1C(=O)NCc1ccc(Oc2ccccc2)cc1 [Compound P-57, 6-(3,5-difluoroanilino)-3-methoxy-N-[(4-phenoxyphenyl)methyl]pyridine-2-carboxamide]
≥ 80%: inhibition at 20 ppm [1] | pest or weed control at 200 ppm [8] | pest or weed control at 200 ppm [2] | inhibition at 20 ppm [3] | inhibition at 20 ppm [4] | pest or weed control at 200 ppm [7] | pest or weed control at 200 ppm [5] | pest or weed control at 200 ppm (Pyrenophora teres) | inhibition at 20 ppm [6]

COc1ccc(Nc2cnsc2)nc1C(=O)NC1CCc2cc(C(F)(F)F)ccc21 (stereo not shown) [Compound P-79, 6-(isothiazol-4-ylamino)-3-methoxy-N-[5-(trifluoromethyl)indan-1-yl]pyridine-2-carboxamide]
≥ 80%: inhibition at 20 ppm [1] | inhibition at 20 ppm [3] | inhibition at 20 ppm [4] | pest or weed control at 200 ppm [7] | inhibition at 20 ppm [6]

CCOc1ccc(Nc2cc(F)cc(F)c2)nc1C(=O)NC(C)(C)C [Compound P-94, N-tert-butyl-6-(3,5-difluoroanilino)-3-ethoxy-pyridine-2-carboxamide]
≥ 80%: pest or weed control at 200 ppm (Alternaria solani) | inhibition at 20 ppm [1] | pest or weed control at 200 ppm [8] | pest or weed control at 200 ppm [2] | inhibition at 20 ppm [3] | inhibition at 20 ppm [4] | pest or weed control at 200 ppm [5] | pest or weed control at 200 ppm (Pyrenophora teres) | inhibition at 20 ppm [6]

COc1ccc(Nc2cc(F)cc(F)c2)nc1C(=O)NCC(C)c1ccccc1 (stereo not shown) [Compound P-23, 6-(3,5-difluoroanilino)-3-methoxy-N-(2-phenylpropyl)pyridine-2-carboxamide]
≥ 80%: inhibition at 20 ppm [1] | inhibition at 20 ppm [3] | inhibition at 20 ppm [4] | pest or weed control at 200 ppm [7] | pest or weed control at 200 ppm [5] | inhibition at 20 ppm [6]

COc1ccc(Nc2cc(F)cc(F)c2)nc1C(=O)NCc1ccccc1 [Compound P-25, N-benzyl-6-(3,5-difluoroanilino)-3-methoxy-pyridine-2-carboxamide]
≥ 80%: inhibition at 20 ppm [1] | pest or weed control at 200 ppm [8] | pest or weed control at 200 ppm [2] | inhibition at 20 ppm [3] | pest or weed control at 200 ppm [7] | pest or weed control at 200 ppm [5] | inhibition at 20 ppm [6]

COc1ccc(Nc2cc(F)cc(F)c2)nc1C(=O)NC1CCc2cc(C(F)(F)F)ccc21 (stereo not shown) [Compound P-55, 6-(3,5-difluoroanilino)-3-methoxy-N-[5-(trifluoromethyl)indan-1-yl]pyridine-2-carboxamide]
≥ 80%: pest or weed control at 200 ppm (Alternaria solani) | inhibition at 20 ppm [1] | pest or weed control at 200 ppm [2] | inhibition at 20 ppm [3] | inhibition at 20 ppm [4] | pest or weed control at 200 ppm [7] | pest or weed control at 200 ppm [5] | inhibition at 20 ppm [6]

COc1ccc(Nc2cc(F)cc(F)c2)nc1C(=O)NCCOc1ccc(F)cc1 [Compound P-27, 6-(3,5-difluoroanilino)-N-[2-(4-fluorophenoxy)ethyl]-3-methoxy-pyridine-2-carboxamide]
≥ 80%: inhibition at 20 ppm [1] | pest or weed control at 200 ppm [2] | inhibition at 20 ppm [3] | inhibition at 20 ppm [4] | pest or weed control at 200 ppm [7] | pest or weed control at 200 ppm [5] | inhibition at 20 ppm [6]

COc1ccc(Nc2cnsc2)nc1C(=O)NC(C)CCCC(C)C (stereo not shown) [Compound P-36, N-(1,5-dimethylhexyl)-6-(isothiazol-4-ylamino)-3-methoxy-pyridine-2-carboxamide]
≥ 80%: inhibition at 20 ppm [1] | inhibition at 20 ppm [3] | inhibition at 20 ppm [4] | inhibition at 20 ppm [6]

COc1ccc(Nc2cc(F)nc(F)c2)nc1C(=O)NC(C)CCCC(C)C (stereo not shown) [Compound P-102, 6-[(2,6-difluoro-4-pyridyl)amino]-N-(1,5-dimethylhexyl)-3-methoxy-pyridine-2-carboxamide]
≥ 80%: inhibition at 20 ppm [1] | inhibition at 20 ppm [3] | inhibition at 20 ppm [4] | pest or weed control at 200 ppm [7] | pest or weed control at 200 ppm [5] | pest or weed control at 200 ppm (Pyrenophora teres) | inhibition at 20 ppm [6]
